Values of other authors as cited in patent US8101779B2, “Enantioselective synthesis of (+) and (–)-2-[1-(2,6-dichlorophenoxy)-ethyl]-1,3-diazacyclopent-2-ene” (University of Kentucky Research Foundation, priority 2008, dated 2012).

Structure (SMILES)	dose at which the effect of lowering mean arterial blood pressure is apparent (effect apparent at doses as low as) [µg/kg]	dose at which lowering of mean arterial blood pressure is not seen (effect not seen even at doses as high as) [µg/kg]
CC(Oc1c(Cl)cccc1Cl)C1=NCCN1 (single isomer, unassigned; (+)) [(+)-lofexidine, (+) 2-[1-(2,6-dichlorophenoxy)-ethyl]1,3-diazacyclopent-2-ene]	≤ 0.561	–
CC(Oc1c(Cl)cccc1Cl)C1=NCCN1 (single isomer, unassigned; (-)) [(−)-lofexidine, (−)-2-[1-(2,6-dichlorophenoxy)-ethyl]-1,3-diazacyclopent-2-ene]	–	> 10
